Reference: patent US7645609B2, “Method for controlling sialylation of proteins produced by mammalian cells” (Immunex Corporation, priority 2002, dated 2010)

Legend:
cultured cells = conditions: N-acetylmannosamine added to culture medium; cited from earlier work
[1] = system: CHO cell line that had been genetically engineered to produce TNFR:Fc; test: Fraction of TNFR:Fc eluting at high salt from an anion exchange column (relative extent of sialylation); format: cell-based, Chinese hamster; conditions: additives at 4 mM each in serum-free medium, 7 days at 30° C., FIG. 2
Experimental: The following experiment was done to determine which carbohydrate or combination of carbohydrates added to cell culture medium is able to induce the most sialylation of TNFR:Fc produced by the cells. The relative extent of sialylation was determined by measuring the fraction of TNFR:Fc produced by a cell culture that elutes from an anion exchange column only at a high salt concentration. This provides a rough measure of the extent of sialylation because proteins with more sialic acid require a higher salt concentration for elution from an anion exchange column. […] Cultures were incubated for 7 days at 30° C. with shaking at 150 revolutions per minute. TNFR:Fc was harvested from the medium after seven days of growth and pre-purified by Protein A affinity chromatography. Thereafter, the purified TNFR:Fc protein concentration was determined by measuring absorbance at 280 nanometers. […] At 22.1 minutes, the gradient was complete, and the column contained 100% Buffer B. Elution of protein was determined by monitoring absorbance at 280 nanometers, and a graph of these measurements versus time (relative to the time of loading) was recorded automatically as the protein eluted from the column. […] The fraction of TNFR:Fc that eluted at high salt was determined by comparing the area under the curve that eluted after soybean trypsin inhibitor with the total area under the curve. […]

Structure (SMILES)	sialylation of a protein produced by the cultured cells (cultured cells)	sialylation of TNFR:Fc (high salt-eluting fraction compared to a batch produced without medium additives) [1]
CC(=O)N[C@@H]1C(O)O[C@H](CO)[C@@H](O)[C@@H]1O (some centres unmarked) [N-acetylmannosamine]	increased sialylation	–
O=C[C@H](O)[C@@H](O)[C@@H](O)[C@H](O)CO [galactose]	–	increases in sialylation
